# Experimental data as given in US20230346769A1, “USE OF SIMPLE ACYCLIC POLYAMINES FOR THE TREATMENT OF DISEASES CAUSED BY PARASITES OF THE GENUS LEISHMANIA” (Universidad De Granada, priority 2020, published 2023).
# Assays:
# [1] = system: J774.2 macrophages; assay: Macrophage toxicity by flow cytometry; type: cell-based; conditions: for IC50: J774.2 macrophages, 72 h of culture
# Method: Macrophage toxicity: this study used the experimental model designed by the group of inventors [I. Ramírez-Macías. et. al. J. Antimicrob. Chemother. 2011, 66(4): 813-819] wherein flow cytometry is used. Briefly, macrophages from line J774.2 (ECACC number 91051511, obtained from a BALB/c female […] tumour in 1968) were deposited in a steriling tube and centrifuged at 120 g for 5 minutes. The supernatant was discarded and the cells were resuspended in MEM + Glutamine medium with 20% SBF (fetal bovine serum). 1×10^4 cells per well were then deposited from a 24-well titration plate and incubated for 24-48 h at 37° C. in a humid atmosphere enriched with 5% CO2 to fix them. […] After 72 h of incubation, the samples were prepared for reading on a flow cytometer. Specifically, 100 µl of propidium iodide solution (100 µg/ml) was added to each well and incubated for 10 min at 28° C. in the dark. Subsequently, 100 µl/well of fluorescein diacetate (FDA) (Sigma Chemical Co) in solution (100 ng/mL) was added and incubation was repeated under the same conditions for 10 minutes. Cells were recovered by centrifugation at 400 g for 10 minutes and washing the precipitate with PBS. Finally, the results were analysed in a FACS Vantage flow cytometer (Becton Dickinson) taking into account that the cells with the plasma membrane intact emit green colour as the esterases act on the FDA, while the cells that have lost the integrity of the membrane and are not viable, emit in the range close to 580 nm by penetrating the propidium iodide by passive diffusion and specifically binding to the nucleic acids thereof. Thus, to calculate the percentage of viability, the number of dead cells compared to controls was taken into account.
# [2] = system: L. braziliensis amastigote forms; assay: In vitro activity against intracellular (amastigote) forms in macrophages; type: cell-based, Leishmania braziliensis; conditions: for Selectivity Index (SI) L. brazilensis Amastigote forms: IC50 of macrophages / IC50 of parasite form; for IC50: Leishmania braziliensis, Macrophage, 72 h
# Description: Methodology: Cultures of three Leishmania species, representative of the species causing each of the clinical forms of the disease, were used for these studies. Specifically, strains MCAN/ES/2001/UCM-1 O of L.infantum, isolated and characterised in Madrid from an infected dog; MHOM/BR/1975/M2904 of L.braziliensis, isolated in Brazil in a human case, and LCR-L 133 LRC of L.donovani. isolated in Jerusalem, Israel from a case of kala-azar […] (WHO Technical Reports Series 949. Geneva: WHO. March. The cultures of parasites come from an own collection which was prepared from a biobank project (Biobank and Characterisation Unit of Strains and Species of Trypanosomatids, Responsible for Human, Animal and Plant Pathologies, Cgl-2008-03687-E/Bos.), and are available on request.
# For the study of the in vitro effect on intracellular forms of Leishmania, the experimental model designed by the group of the present inventors was used [Sánchez-Moreno. M. et al. Med. Chem. 2012, 55, 9900-9913; Sánchez-Moreno. M. et al. J. Antimicrob. Chemother. 2012, 67, 387-397]. The macrophages were detached from the culture flask where they were attached by dry blows. To do this, it was incubated in cold for 5 minutes and after that the flask was hit with the palm of the hand until the cells were detached from the flask. Then, they were passed to a 25 ml capacity steriling conical bottom flask (Deltalab) to centrifuge them at 120 g for 5 minutes, removing the supernatant and were counted in Neubauer’s chamber. Cells were suspended in RPMI medium at a concentration of 1×10^4 cells/well, then cultured in 24-well plates into which a 12 mm round slide had previously been placed into each well. For adherence, the cells were left 24 h at 37° C. in 5% CO2. Subsequently, the cells were infected in vitro by placing Leishmania cells at the rate of 10 parasites/macrophage according to [Sánchez-Moreno. M et al. Med. Chem. 2011, 54, 970-979]. […] The products were allowed to act for 72 hours of incubation.
# After that time, the crystals were removed and fixed with methanol on a slide and allowed to dry, after which DPX microscopy mounting medium (Panreac®) was added to it. Once the preparations had been mounted, they were dyed with Giemsa by diluting Azur-Eosin-Methylene Blue solution according to Giemsa DC (Code 251338) with Sorensen buffer (1:10 dilution). The preparations were covered and allowed to colour for 20 minutes, after which they were washed with distilled water and then allowed to drain and dry vertically. Finally, the amastigote forms were counted with the aim of immersion in a total of 200 cells.
# [3] = Potentiometric titrations, protonation constants; type: physicochemical; conditions: 0.15 M NaCl, 298.1 K
# Method: FEM measurements. Potentiometric titrations were conducted at 298.1 ± 0.1 K using 0.15 M NaCl as the support electrolyte. The experimental procedure (burette, potentiometer, cell, stirrer, microcomputer, etc.) has been fully described elsewhere (E. García-Spain, M.-J. Ballester, F. Lloret, J.M. Moratal, J. Faus and A. Bianchi, J. Chem. Soc. Dalton Trans. 1988, 101-104). The FEM data acquisition was performed with the PASAT software (M. Fontanelli and M. Micheloni, Program for the automatic control of the microburette and the acquisition of the electromotor force readings (PASAT). Minutes of the 1st Spanish-Italian Congress of Thermodynamics of Metal Complexes, Peñíscola, Castellón, Spain, 1990). The reference electrode was an Ag/AgCl electrode in saturated KCI solution. The glass electrode was calibrated as a hydrogen ion concentration probe by titration of previously standardised amounts of HCl with CO2 free NaOH solutions and the equivalent point determined by Gran’s method ((a) G. Gran, Analyst 1952, 77, 661 -671; (b) F.J. Rossotti and H. Rossotti, J. Chem. Educ. 1965, 42, 375-378) providing the standard potential, Eº’, and the ionic product of water (pKw = 13.73 (1)).
# Hyperquad software was used to calculate protonation and stability constants (P. Gans, A. Sabatini and A. Vacca, Talanta 1996, 43, 1739-1753). The pH range investigated was 2.5-11.0 and the concentration of the ligands varied from 1×10^-3 to 5×10^-3 M. The different titration curves for each system (at least two) were treated as a single set or as separate curves without significant variations in the values of the stability constants. Finally, the data sets were fused and treated simultaneously to give the final protonation constants (Table 1). For compounds 1, 7 and 9, two protonation constants have been detected in the pH range studied with values ranging from 5.51 to 9.68 logarithmic units. For the remaining compounds, three protonation constants have been measured with values ranging from 10.08 to 2.25 logarithmic units. All compounds have charge +1 at the physiological pH value of 7.4.
SMILES,IC50 [1] [µM],Selectivity Index (SI) L. brazilensis Amastigote forms [2],IC50 [2] [µM],Log β [3],Logarithm of the protonation constant H+L ⇌ HL [3],Logarithm of the protonation constant HL+H ⇌ H2L [3],Toxicity in macrophages (IC50) compared with the reference compound [1],Logarithm of the protonation constant H2L+H ⇌ H3L [3]
"CNCCNCc1ccccn1 [Compound 1, 1-{2-pyridyl}-2,5-diazahexane]",13.7 ± 3.1,2,5.7 ± 0.3,15.25(1),9.63(1) ^b,5.62(1),–,–
"CNCCNCc1cccnc1 [Compound 2, 1-{3-pyridyl)-2,5-diazahexane]",310 ± 11.5,20,15.8 ± 0.5,18.29(3),9.653(5),5.687(5),low toxicities,2.95(2)
"CNCCNCc1ccncc1 [Compound 3, 1-{4-pyridyl)-2,5-diazahexane]",223 ± 17.3,8,27.9 ± 1.2,18.60(1),9.503(5),5.713(5),–,3.390(6)
"CN(C)CCNCc1ccccn1 [Compound 4, 1-(2-pyridyl)-5-methyl-2,5-diazahexane]",1240 ± 42.7,40,30.8 ± 1.3,16.88(2),9.06(1) ^b,5.58(1),–,2.25(2)
"CN(C)CCNCc1cccnc1 [Compound 5, 1-{3-pyridyl}-5-methyl-2,5-diazahexane]",230 ± 16.9,11,20 ± 2,17.98(1),9.18(1),5.63(1),much lower,3.16(1)
CN(C)CCNCc1ccncc1 [Compound 6],497 ± 21.5,17,29.7 ± 2.5,17.22 (1),8.865(3),5.407(3),–,2.956(6)
CN(C)CCNCc1ccc2ccccc2n1 [Compound 7],442 ± 31.6,11,38.9 ± 2.7,14.63 (1),9.17(1),5.45(1),–,–
"CN(C)CCNCc1ccnc2ccccc12 [Compound 8, 1-{4-quinolyl)-5-methyl-2,5-diazahexane]",22.5 ± 0.6,1,16.8 ± 1.1,18.99(2),10.08(1),5.59(1),–,3.32(1)
"CNCCNCc1ccc2ccccc2n1 [Compound 9, 1-{2-quinolyl)-2,5-diazahexane]",354 ± 31.7,13,26.5 ± 0.9,15.10(3),9.68(2),5.41(2),–,–
CNCCNCc1ccnc2ccccc12 [Compound 10],164 ± 10,8,21.7 ± 2.3,17.99(1),9.512(6),5.297(7),–,3.183(8)
